# Legend:
# [1] = system: LN229; assay: MTS cytotoxicity, LN229; format: cell-based; conditions: Homo sapiens, LN-229
# Procedure: (§1) Human cancer cell lines were cultured in basic medium (10% fetal bovine serum (FBS)+1% double antibody solution) (Biological Industries) at 37°C in a 5% CO2 incubator. Effects of CTXs on cell proliferation and viability were measured by an MTS (Promega Corporation) assay. Absorbance values at 490 nm were measured using a microplate reader (Thermo Scientific, Varioskan Flash) ([22]).
# [2] = system: DU145 cells; assay: Cell cycle arrest (PI, flow cytometry); format: cell-based, human; conditions: 24 h
# Procedure: Cells were incubated with drugs for 24 h. Fixed cells were incubated with RNase A and stained with propidium iodide (PI). DNA content was determined in a flow cytometer (BD FACS CaliburTM Flow Cytometer, USA) ([23]).
# [3] = system: MCF-7 xenografts; assay: MCF-7 breast cancer xenograft, tumor volume; format: in vivo, BALB/c nude mice; conditions: MCF-7 xenograft, 9.6 μmol/kg
# Procedure: All animal experiments were conducted in accordance with protocols approved by the Institutional Animal Care and Use Committee of Peking Union Medical College. Male BALB/c nude mice (6–8 weeks old) and female KM mice (6–8 weeks old) were purchased from Charles River Laboratories (Beijing, China) and maintained under specific pathogen-free conditions.
# MCF-7 Breast Cancer Model: Female BALB/c nude mice bearing MCF-7 xenografts (2×10^6 cells/mouse) were randomized into treatment groups as described above, with an adjusted dose of 9.6 μmol/kg for all CTX formulations.
# [4] = system: HCT 116; assay: MTS cytotoxicity, HCT 116; format: cell-based; conditions: Homo sapiens; HCT 116, MTS
# Procedure: as §1
# [5] = Systemic toxicity in H22 tumor-bearing mice (body weight, blood count); format: in vivo, KM mice
# Procedure: (§2) H22 hepatoma model: Female KM mice were subcutaneously implanted with H22 cells (2×10^6 cells/mouse) and assigned to six groups: (a) Vehicle control; (b) CTX (9.6 μmol/kg in 5% glucose with 2.5% ethanol/2.5% Tween 80); (c) CTX-TTHA (9.6 μmol/kg in saline); (d) CTX-DTPA (9.6 μmol/kg in saline); (e) CTX-TTHA (19.1 μmol/kg in saline); (f) CTX-DTPA (19.1 μmol/kg in saline).
# (§3) Treatments were administered every other day for four doses (three doses for CTX group due to weight loss >15%). Peripheral blood samples were collected for complete blood count analysis using an automated hematology analyzer.
# [6] = system: MCF-7; assay: MTS cytotoxicity, MCF-7; format: cell-based; conditions: Homo sapiens, MCF7; MCF-7, MTS
# Procedure: as §1
# [7] = system: H22 hepatocellular carcinoma tumors; assay: H22 hepatoma model, tumor growth inhibition; format: in vivo, KM mice; conditions: every other day
# Procedure: as §2, §3
# [8] = Hemolysis test; format: cell-based, SD rats; conditions: SD, rat, rat red blood cells, 2% (v/v) suspension, 37 °C, 1.5 h
# Procedure: The hemolytic potential of CTX formulations was evaluated using rat red blood cells (RBCs). Briefly, whole blood was collected from the abdominal aorta of anesthetized SD rats into ACD anticoagulant (blood:ACD = 1:4, v/v). The blood was diluted with normal saline (4:5, v/v) and centrifuged at 450 g for 10 min. The RBC pellet was washed three times with normal saline until the supernatant was clear. The washed RBCs were then resuspended in normal saline to prepare a 2% (v/v) suspension.
# For the assay, 500 μL of the 2% RBC suspension was mixed with an equal volume of serially diluted drugs or controls in 1.5 mL tubes. The controls included: Negative control (0% hemolysis): normal saline. Positive control (100% hemolysis): distilled water. Solvent control: the vehicle for unmodified CTX (2.5% Tween 80 + 2.5% anhydrous ethanol + 95% normal saline). The mixtures were incubated at 37 °C for 1.5 h and then centrifuged at 450 g for 5 min. Subsequently, 150 μL of the supernatant from each tube was transferred to a 96-well plate, and the absorbance at 545 nm (OD545) was measured using a microplate reader. The percentage of hemolysis was calculated using the following formula: Hemolysis (%) = [(ODsample - ODnegative control)/(ODpositive control - ODnegative control)] × 100.
# [9] = Excretion (urine, feces); format: in vivo; conditions: SD rats, 6 μmol/kg iv
# Procedure: Male and female SD rats (200–220 g) received intravenous injections of CTX or CTX-DTPA (6 μmol/kg). […] Blood samples were collected at 5 min to 24 h post-dose. Tissues (heart, liver, spleen, lung, kidney, thymus) and excreta were collected at 15 min, 2 h, 4 h, and 12 h. Plasma and tissue samples were processed by liquid-liquid extraction with n-butanol and analyzed via LC-MS/MS (Agilent Poroshell 120 EC-C18 column; 0.05% formic acid/acetonitrile gradient). Pharmacokinetic parameters were calculated using DAS 2.0 via non-compartmental analysis.
# [10] = system: A549; assay: MTS cytotoxicity, A549; format: cell-based; conditions: Homo sapiens
# Procedure: as §1
# [11] = system: Bel-7402; assay: MTS cytotoxicity, Bel-7402; format: cell-based; conditions: Homo sapiens; Bel-7402, MTS
# Procedure: as §1
# [12] = system: H358; assay: MTS cytotoxicity, H358; format: cell-based; conditions: Homo sapiens, NCI-H358
# Procedure: as §1
# [13] = Tissue distribution; conditions: for concentration at 15 min / concentration at 2 h / concentration at 4 h / concentration at 12 h: both, SD, rat, iv, 6 μmol/kg
# Procedure: Male and female SD rats (200–220 g) received intravenous injections of CTX or CTX-DTPA (6 μmol/kg). CTX was dissolved in 2.5% Tween 80/2.5% EtOH/saline, while CTX-DTPA used saline alone. Blood samples were collected at 5 min to 24 h post-dose. Tissues (heart, liver, spleen, lung, kidney, thymus) and excreta were collected at 15 min, 2 h, 4 h, and 12 h. Plasma and tissue samples were processed by liquid-liquid extraction with n-butanol and analyzed via LC-MS/MS (Agilent Poroshell 120 EC-C18 column; 0.05% formic acid/acetonitrile gradient). Pharmacokinetic parameters were calculated using DAS 2.0 via non-compartmental analysis.
# [14] = system: Fadu; assay: MTS cytotoxicity, Fadu; format: cell-based; conditions: Homo sapiens
# Procedure: as §1
# [15] = system: DU145; assay: MTS cytotoxicity, DU145; format: cell-based; conditions: Homo sapiens, DU-145
# Procedure: as §1
compound,measurement,setting,value
"CO[C@H]1C(=O)[C@]2(C)[C@@H](OC)C[C@H]3OC[C@@]3(OC(C)=O)[C@H]2[C@H](OC(=O)c2ccccc2)[C@]2(O)C[C@H](OC(=O)[C@H](O)[C@@H](NC(=O)OC(C)(C)C)c3ccccc3)C(C)=C1C2(C)C [CTX, Cabazitaxel]",IC50,[1],8.5 ± 2.3 nM
same,cells arrested in G2/M,"[2]; DU145, 1 nM",16.5 ± 0.7%
same,cells arrested in G2/M,"[2]; DU145, 25 nM",65.5 ± 19.9%
same,tumor volume at study endpoint,[3],56 ± 12 mm³
same,IC50,[4],2.2 ± 1.1 nM
same,white blood cell count,"[5]; H22 mice, day 7 post-treatment, controls 4.46 ± 1.19",1.55 ± 0.17 ×10^9/L
same,body weight loss,"[5]; H22 tumor-bearing mice, 9.6 μmol/kg",11-16%
same,IC50,[6],5.3 ± 1.9 nM
same,tumor growth inhibition,"[7]; H22, 9.6 μmol/kg, three doses",30.8%
same,"hemolysis at 1.5 h, 4.7 nmol/mL","[8]; 4.7 nmol/mL, read-out: hemolysis rate",11 ± 3.2%
same,"hemolysis at 1.5 h, 75 nmol/mL","[8]; 75 nmol/mL, read-out: hemolysis rate",73.4 ± 5.8%
same,total excretion of administered dose,[9]; in 24 h,< 1 % of dose
same,IC50,[10],2.5 ± 1.2 nM
same,IC50,[11],2.8 ± 0.5 nM
same,IC50,[12],1.2 ± 0.6 nM
same,concentration at 15 min,[13]; heart,43.2 ± 12.9 ng/g
same,concentration at 2 h,[13]; heart,24.6 ± 2.33 ng/g
same,concentration at 4 h,[13]; heart,16 ± 1.91 ng/g
same,concentration at 12 h,[13]; heart,12.6 ± 2.69 ng/g
same,concentration at 15 min,[13]; kidney,550 ± 12 ng/g
same,concentration at 2 h,[13]; kidney,313 ± 47.5 ng/g
same,concentration at 4 h,[13]; kidney,308 ± 41.5 ng/g
same,concentration at 12 h,[13]; kidney,218 ± 15.9 ng/g
same,concentration at 15 min,[13]; liver,149 ± 7.27 ng/g
same,concentration at 2 h,[13]; liver,78.7 ± 10.6 ng/g
same,concentration at 4 h,[13]; liver,48.7 ± 11.5 ng/g
same,concentration at 12 h,[13]; liver,29.3 ± 11.5 ng/g
same,concentration at 15 min,[13]; lung,133 ± 15 ng/g
same,concentration at 2 h,[13]; lung,117 ± 4.61 ng/g
same,concentration at 4 h,[13]; lung,106.8 ± 0.42 ng/g
same,concentration at 12 h,[13]; lung,79 ± 30.9 ng/g
same,concentration at 15 min,[13]; spleen,250 ± 38.3 ng/g
same,concentration at 2 h,[13]; spleen,160 ± 2.24 ng/g
same,concentration at 4 h,[13]; spleen,113 ± 21 ng/g
same,concentration at 12 h,[13]; spleen,54 ± 8.47 ng/g
same,concentration at 15 min,[13]; thymus,87.8 ± 23.5 ng/g
same,concentration at 2 h,[13]; thymus,129 ± 50 ng/g
same,concentration at 4 h,[13]; thymus,110 ± 41.8 ng/g
same,concentration at 12 h,[13]; thymus,67.2 ± 4.15 ng/g
same,IC50,[14],1.6 ± 0.4 nM
same,IC50,[15],6.1 ± 2.4 nM
COC1C(=O)C2(C)C(OC)CC3OCC3(OC(C)=O)C2C(OC(=O)c2ccccc2)C2(O)CC(OC(=O)C(OC(=O)CN(CCN(CCN(CC(=O)O)CC(=O)O)CC(=O)O)CC(=O)O)C(NC(=O)OC(C)(C)C)c3ccccc3)C(C)=C1C2(C)C (stereo not drawn) [CTX-DTPA],IC50,[1],5.8 ± 2.2 nM
same,cells arrested in G2/M,"[2]; DU145, 1 nM",16.4 ± 1.0%
same,cells arrested in G2/M,"[2]; DU145, 25 nM",58.9 ± 16.1%
same,tumor volume at study endpoint,[3],111 ± 18 mm³
same,IC50,[4],3.7 ± 1 nM
same,WBC counts,"[5]; H22 mice, throughout treatment, across all dose groups (9.6 and 19.1 μmol/kg)",3.50-5.60 ×10^9/L
same,IC50,[6],6.8 ± 2.4 nM
same,tumor growth inhibition,"[7]; H22, high dose 19.1 μmol/kg in saline, four doses",80.5%
same,"hemolysis at 1.5 h, 300 nmol/mL","[8]; 300 nmol/mL (maximum tested), read-out: hemolysis rate",12.1 ± 9.2%
same,hemolysis at 1.5 h,[8]; concentrations up to 150 nmol/mL,< 2%
same,urinary excretion of intact CTX-DTPA,[9]; cumulative,2191.14 ± 853.66 µg/kg
same,renal excretion,[9]; within 24 hours,39.8 ± 12.7%
same,IC50,[10],3 ± 1.1 nM
same,IC50,[11],2.9 ± 0.9 nM
same,IC50,[12],1.6 ± 0.7 nM
same,concentration at 15 min,"[13]; in vivo, tissue concentration, spleen, 15 min, SD rats 6 μmol/kg iv, dosed compound",0.39 ± 0.04 ng/g
same,concentration at 15 min,"[13]; in vivo, tissue concentration, thymus, 15 min, SD rats 6 μmol/kg iv, dosed compound",0.62 ± 0.05 ng/g
same,tissue concentration,"[13]; heart, 15 min, SD rats 6 μmol/kg iv, dosed compound",* 0.27 ± 0.04 μg/kg
same,tissue concentration,"[13]; heart, 2 h, SD rats 6 μmol/kg iv, dosed compound",*** 0.07 ± 0.03 μg/kg
same,tissue concentration,"[13]; heart, 4 h, SD rats 6 μmol/kg iv, dosed compound",*** 0.04 ± 0.00 μg/kg
same,tissue concentration,"[13]; heart, 12 h, SD rats 6 μmol/kg iv, dosed compound",** 0.06 ± 0.03 μg/kg
same,tissue concentration,"[13]; kidney, 15 min, SD rats 6 μmol/kg iv, dosed compound",**** 41.08 ± 9.73 μg/kg
same,tissue concentration,"[13]; kidney, 2 h, SD rats 6 μmol/kg iv, dosed compound",** 4.96 ± 1.67 μg/kg
same,tissue concentration,"[13]; kidney, 4 h, SD rats 6 μmol/kg iv, dosed compound",*** 1.55 ± 0.31 μg/kg
same,tissue concentration,"[13]; kidney, 12 h, SD rats 6 μmol/kg iv, dosed compound",**** 1.36 ± 0.84 μg/kg
same,tissue concentration,"[13]; liver, 15 min, SD rats 6 μmol/kg iv, dosed compound",*** 37.74 ± 16.89 μg/kg
same,tissue concentration,"[13]; liver, 2 h, SD rats 6 μmol/kg iv, dosed compound",** 7.21 ± 1.30 μg/kg
same,tissue concentration,"[13]; liver, 4 h, SD rats 6 μmol/kg iv, dosed compound",* 6.74 ± 5.04 μg/kg
same,tissue concentration,"[13]; liver, 12 h, SD rats 6 μmol/kg iv, dosed compound",* 0.65 ± 0.42 μg/kg
same,tissue concentration,"[13]; lung, 15 min, SD rats 6 μmol/kg iv, dosed compound",*** 2.36 ± 1.29 μg/kg
same,tissue concentration,"[13]; lung, 2 h, SD rats 6 μmol/kg iv, dosed compound",**** 0.48 ± 0.50 μg/kg
same,tissue concentration,"[13]; lung, 4 h, SD rats 6 μmol/kg iv, dosed compound",**** 0.13 ± 0.01 μg/kg
same,tissue concentration,"[13]; lung, 12 h, SD rats 6 μmol/kg iv, dosed compound",* 1.10 ± 0.45 μg/kg
same,tissue concentration,"[13]; spleen, 15 min, SD rats 6 μmol/kg iv, dosed compound",*** 0.39 ± 0.04 μg/kg
same,tissue concentration,"[13]; spleen, 2 h, SD rats 6 μmol/kg iv, dosed compound",**** 0.09 ± 0.03 μg/kg
same,tissue concentration,"[13]; spleen, 4 h, SD rats 6 μmol/kg iv, dosed compound",** 0.05 ± 0.02 μg/kg
same,tissue concentration,"[13]; spleen, 12 h, SD rats 6 μmol/kg iv, dosed compound",** 0.05 ± 0.03 μg/kg
same,tissue concentration,"[13]; thymus, 15 min, SD rats 6 μmol/kg iv, dosed compound",** 0.62 ± 0.05 μg/kg
same,tissue concentration,"[13]; thymus, 2 h, SD rats 6 μmol/kg iv, dosed compound",* 0.10 ± 0.07 μg/kg
same,tissue concentration,"[13]; thymus, 4 h, SD rats 6 μmol/kg iv, dosed compound",* 0.05 ± 0.01 μg/kg
same,tissue concentration,"[13]; thymus, 12 h, SD rats 6 μmol/kg iv, dosed compound",**** 0.06 ± 0.04 μg/kg
same,IC50,[14],1.9 ± 0.6 nM
same,IC50,[15],5.1 ± 1.4 nM
